Patent publication US20050043551A1, “Method of obtaining 2-(2-nitrovinyl)-furan and the use thereof as a coccidiostatic” (priority 2001, published 2005)
Where “and” joins values, the source holds several entries; their conditions need not be identical. Equal values may be shown once.

How the values were obtained:
[1] = tested on: Eimeria tenella; assay: Artificial infection of chicks with Eimeria tenella oocysts (Example 2); type: in vivo; details: 1x10^5 E. tenella oocysts oral; for Weight gain in % during 9 days: 9 days treatment; for Mortality: deaths/12 birds
Description: To carried out the assay of the action of the synthesized product, the 2-(2nitrovynil)-furan, it was first dissolved first in an alcoholic solution at 3% and later in water, using several concentrations (2, 4, 8 μg/ml) of the alcohol-water solution, as is shown Table 2.
One day old, male, free of Coccidia, F1 fatten chicks were used. These birds were maintained in an appropriate condition, free of Coccidia until two weeks of age. For feeding, it was used the same food used to fatten chickens but free of anticoccididals.
5 groups of 12 poultry with similar weight were formed which received an inoculation of 1×10^5 oocysts of Eimeria tenella by oral route, using a esophagic canula. The treatment began when chicks had 15 days of age, 24 hours before receiving the inoculation, during a period of 9 days.
To evaluate the effectiveness of the product the gain of weight (% referred to the initial weight) and the death number approaches were used in each tratment.

[2] = tested on: intestinal Coccidias (E. perforans, E. magna, E. media, E. exigua); assay: Rabbits inoculated with oocysts of intestinal Eimeria (Example 4); type: in vivo; details: for Weight gain in % during 7 days: 4 μg/mL in drinking water for 5 days; for Mortality: 4 μg/mL, deaths/3 animals
Description: The 2-(2-nitrovynil)-furan, in a formulation similar to that described in the example 2, was dissolved in rabbits' drinking water and administered daily at libitum for 5 days. Two experiments (I, II), each one with 9 rabbits, were carried out. Each experiment had 3 treatments of 3 animals each one. Among treatments an infected no treated group and a group neither infected nor treated were considered.. In the 1st experiment each rabbit received 61×10^3 those of the 2nd experiment 116×10^3 oocysts of intestinal Coccidias. The present species were E. perforans 38%, E. magna 30%, E. media 22% and E. exigua 10%, with a 97.3% of sporulation. The initial and final weight difference and the deaths of animals after 7 days treatment was used as evaluation criteria.

[3] = Oral Half Lethal Dose (LD50) in rats; type: in vivo; details: several solvents, female and male Sprague Dawley rats
[4] = tested on: E. tenella; assay: Leghorn egg-laying hens naturally infected with E. tenella (Example 3); type: in vivo; details: 4 μg/mL in drinking water twice a day for 5 days, deaths/2000 birds
Description: The 2-(2-nitrovynil)-furan, in a formulation similar to that described in the example 2, was applied, in the drinking water twice a day (8 am and 12 m) for 5 days, to 2000 Leghorn egg-laying hens of 56-84 days of age, infected naturally with E. tenella. Two houses highly infected by caecal coccidiosis with 2000 birds each were there was an average of 119 deaths per house in 5 days were selected. The diagnoses was made by the presence of bloody diarrheas, the observation of typical lesions in the blind intestine and abundant presence of parasite oocysts in the caecal content. Infected birds in a house was left as nontreated control and another no infected as neither infected nor treated control having the same range of age.
To evaluate the effectiveness of the product the approach described in the example 2 was used, except that as weight control. Except that as weight control 10 birds of each pen were randomly selected and weighed at the beginning and the end of the treatment.

[5] = tested on: Coccidia (E. perforans, E. magna, E. media, E. exigua); assay: Oocyst reduction in feces of treated rabbits in production conditions (Example 5); type: in vivo; details: 4 μg/ml in drinking water 5 days, before vs after 7 days
Description: The 2-(2-nitrovynil)-furan, in a formulation similar to that described in the example 2, was dissolved in rabbit's drinking water and administered daily at libitum for 5 days at concentration of 4 μg/ml. It were treated 1 246 newborn, young and adult rabbits of the Chinchilla, New White Zelanda and New Red Zelanda species belonging to 3 rabbit companies. The species of Coccidia present were E. perforans 34%, E. magna 32%, E. media 23% and E. exigua 11%. The amount of oocysts per gram of feces before and after 7 days of the treatment was determined to 20% of all treated animals. The difference between the number of oocysts before and after 7 days of treatment expressed as percentage of oocyst reduction, was taken as efficacy criterium.

[6] = Oral Half Lethal Dose (LD50) in hens; type: in vivo; details: several solvents, mature Leghorn hens
[7] = In vitro sister chromatide exchange assay; type: cell-based; details: with and without metabolic activation
Description: (§1) In vitro mutagenesis studies were carried out using the micronucleus assay with blockade of cytokinesis with and without metabolic activation, as well as the sister chromatide exchange assay with and without metabolic activation. It was are carried out a theoretical study assisted by computer for the prognosis of the mutagenic activity.

[8] = type: cell-based
Description: as §1

[9] = Experiment I, 61 x 10^3 oocysts
[10] = Experiment II, 116 x 10^3 oocysts

SMILES: O=[N+]([O-])C=Cc1ccco1 [2-(2-nitrovynil)-furan]
- Weight gain in % during 9 days ([1]; dose 2 μg/mL): 78.79%
- Mortality ([1]; dose 2 μg/mL): 1/12
- Mortality ([1]; dose 4 μg/mL): no deaths and 0/12
- Weight gain in % during 9 days ([1]; dose 8 μg/mL): 63.95%
- Mortality ([1]; dose 8 μg/mL): 0/12
- Weight gain in % during 7 days [2, 9]: 4%
- Mortality [2, 9]: no mortality and 0/3
- Weight gain in % during 7 days [2, 10]: 3%
- Mortality [2, 10]: no deaths and 0/3
- Half Lethal Dose (LD50) [3]: 171.91 mg/kg of body mass
- Mortality in 5 days [4]: remarkable decrease of mortality and 15/2000
- Reduction in % (oocysts per gram of feces) ([5]; Company 1, rabbits): 90%
- Reduction in % (oocysts per gram of feces) ([5]; Company 2, rabbits): 99%
- Reduction in % (oocysts per gram of feces) ([5]; Company 3, rabbits): 90%
- Half Lethal Dose (LD50) [6]: 1.02 g/kg of body mass
- Mutagenic activity, sister chromatide exchange assay [7]: did not shown mutagenic activity
- Mutagenic activity, micronucleus assay [8]: did not shown mutagenic activity
